system: db/db mice; experiment: Experimental model of type II diabetes (oral postprandial glycemia in db/db mice); assay type: in vivo; settings: 50 mg/kg per os, 4 hrs after drug administration, compared to vehicle treated Group 1
Protocol: b) In Vivo Assay: Experimental Model of Type II Diabetes (oral Postprandial Glycemia in db/db Mice)
The following assay aims at determining the anti-diabetic effect of the test compounds of formula (I) in a model of postprandial glycemia in db/db mice, in vivo.
The assay was performed as follows:
A total of 24 db/db mice (about 8-9 weeks; obtained from IFFACREDO, l'Arbreste, France) were fasted during 20 hours.
2 groups, each consisting of 6 animals were formed: • Group 1: The animals were administered (per os) a dose of 10 mg/kg of vehicle. • Group 2: The animals were administered per os) a dose of 50 mg/kg of the test compound according to formula (D.
After oral administration of the compounds of formula (I) solubilized or suspended in CarboxyMethylCellulose (0.5%), Tween 20 (0.25%) and water as vehicle, the animals had access to commercial food (D04, UAR, Villemoisson/Orge, France) ad libitum. The diabetic state of the mice was verified by determining the blood glucose level before drug administration. Blood glucose and serum insulin levels were then determined 4 hrs after drug administration.
The determination of the blood glucose level was performed using a glucometer (Precision Q.I.D., Medisense, Abbot, ref. 212.62.31). […]
Changes in blood glucose and serum insulin of drug treated mice were expressed as a percentage of control (group 1: vehicle treated mice).

Row | Compound | blood glucose level reduced
1 | CCN1/C(=C(\C#N)c2nc(NC3CCC3)ncc2C)Nc2ccccc21 [Example 3] | about 28%

same assay, conditions: serum insulin, 50 mg/kg per os, 4 hrs after drug administration, compared to vehicle treated Group 1

Row | Compound | insulin level reduced
2 | CCN1/C(=C(\C#N)c2nc(NC3CCC3)ncc2C)Nc2ccccc21 [Example 3] | about 58%

target: human GSK3 beta (Homo sapiens, UniProt P49841); experiment: GSK3β in vitro kinase assay (33P-ATP phosphorylation of phospho GS2 peptide); assay type: biochemical; settings: in vitro potency, read-out: IC50 (μM) GSK3beta
Sequence (P49841 whole entry): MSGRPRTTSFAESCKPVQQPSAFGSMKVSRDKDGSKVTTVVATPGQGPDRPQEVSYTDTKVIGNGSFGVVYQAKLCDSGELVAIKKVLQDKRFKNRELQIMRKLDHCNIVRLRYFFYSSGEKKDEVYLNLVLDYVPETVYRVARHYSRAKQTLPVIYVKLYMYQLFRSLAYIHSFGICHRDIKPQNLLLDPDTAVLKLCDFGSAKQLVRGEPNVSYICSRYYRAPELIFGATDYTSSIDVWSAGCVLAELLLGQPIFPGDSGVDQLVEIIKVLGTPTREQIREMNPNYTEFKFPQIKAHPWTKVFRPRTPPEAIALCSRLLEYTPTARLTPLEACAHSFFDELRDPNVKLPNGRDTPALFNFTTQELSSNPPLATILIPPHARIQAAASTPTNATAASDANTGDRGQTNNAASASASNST
Protocol: GSK3β Assay (see Bioorg. Med. Chem. Lett by Naerum et al. 12 p. 1525-1528 (2002))
In a final reaction volume of 25 μl, GSK3β (h) (5-10 mU) is incubated with 8 mM MOPS pH 7.0, 0.2 mM EDTA, 20 μM […](p)EDEEE (being the GSK3 substrate; a phospho GS2 peptide), 10 mM Mg Acetate and [γ-^33P-ATP] (Specific activity approx. 500 cpm/pmol, concentration as required). The reaction is initiated by the addition of Mg^2+ [γ-^33P-ATP]. After incubation for 40 minutes at room temperature, the reaction is stopped by the addition of 5 μl of a 3% phosphoric acid solution. 10 μl of the reaction is then spotted onto a P30 filtermat and washed three times for 5 minutes in 50 mM phosphoric acid and once in methanol prior to drying and the degree of phosphorylation of the substrate is determined by scintillation counting.

Row | Compound | IC50 [µM]
3 | CCN1/C(=C(\C#N)c2cc(NCCc3cccnc3)ncn2)Nc2ccccc21 [Example 46] | < 10
4 | CCN1/C(=C(\C#N)c2nc(NC(=O)Cc3ccccc3OC)ncc2C)Nc2ccccc21 [Example 79, N-{4-[(Z)-cyano(1-ethyl-1,3-dihydro-2H-benzimidazol-2-ylidene)methyl]-5-methylpyrimidin-2-yl}-2-(2-methoxyphenyl)acetamide] | < 10
5 | N#C/C(=C1/Nc2ccccc2N1C1CCC1)c1ccnc(NCCCN2CCCC2=O)n1 [Example 15, (2Z)-(1-cyclobutyl-1,3-dihydro-2H-benzimidazol-2-ylidene)(2-{[3-(2-oxopyrrolidin-1-yl)propyl]amino}pyrimidin-4-yl)acetonitrile] | < 10

The next lines start with the values.

Row | IC50 [µM] | Compound
6 | < 10 | CCN1/C(=C(\C#N)c2nc(NC(=O)C3CN(C(=O)OC(C)(C)C)CCO3)ncc2C)Nc2ccccc21 (stereo not drawn) [Example 84, tert-butyl 2-[({4-[(Z)-cyano(1-ethyl-1,3-dihydro-2H-benzimidazol-2-ylidene)methyl]-5-methylpyrimidin-2-yl}amino)carbonyl]morpholine-4-carboxylate]
7 | < 10 | CCN1/C(=C(\C#N)c2nc(NC(=O)CCCNC(=O)OC(C)(C)C)ncc2C)Nc2ccccc21 [Example 73, tert-butyl[4-({4-[(Z)-cyano(1-ethyl-1,3-dihydro-2H-benzimidazol-2-ylidene)methyl]-5-methylpyrimidin-2-yl}amino)-4oxobutyl]carbamate]
8 | < 10 | CCN1/C(=C(\C#N)c2nc(NC3CCCCCC3)ncc2C)Nc2ccccc21 [Example 12, (2Z)-[2-(cycloheptylamino)-5-methylpyrimidin-4-yl](1-ethyl-1,3-dihydro-2H-benzimidazol-2-ylidene)acetonitrile]
9 | < 10 | Cc1cnc(NC2CCCC2)nc1C(C#N)=C1Nc2ccccc2N1 [Example 28, [2-(cyclopentylamino)-5-methylpyrimidin-4yl](1,3-dihydro-2H-benzimidazol-2-ylidene)acetonitrile]
